Laboratory results reported in patent US20130252890A1, “6,7-DIHYDRO-5H-BENZO[7]ANNULENE DERIVATIVES, PROCESS FOR PREPARATION THEREOF, PHARMACEUTICAL PREPARATIONS COMPRISING THEM, AND THE USE THEREOF FOR PRODUCTION OF MEDICAMENTS” (BAYER INTELLECTUAL PROPERTY GMBH, priority 2010, published 2013).
pIC50: −log10 of the molar value.

The compounds below were run against T1, oestrogen receptor (ER) (Homo sapiens, UniProt P03372) (assay: Anti-oestrogenic action in MVLN cells (inhibition of estradiol-induced luciferase)). Settings: inhibition of estradiol-induced luciferase signal, value of Ex. 44 is a mean value, read-out: Antioestrogenic action in vitro: MVLN transactivation antagonism IC50.
T1 construct: These MVLN cells express, along with the functional oestrogen receptor (ER), a reporter construct; endogenous in cells; host or cells: MVLN cells (MCF7 derivative carrying a luciferase reporter construct)
T1 sequence (P03372 1-595): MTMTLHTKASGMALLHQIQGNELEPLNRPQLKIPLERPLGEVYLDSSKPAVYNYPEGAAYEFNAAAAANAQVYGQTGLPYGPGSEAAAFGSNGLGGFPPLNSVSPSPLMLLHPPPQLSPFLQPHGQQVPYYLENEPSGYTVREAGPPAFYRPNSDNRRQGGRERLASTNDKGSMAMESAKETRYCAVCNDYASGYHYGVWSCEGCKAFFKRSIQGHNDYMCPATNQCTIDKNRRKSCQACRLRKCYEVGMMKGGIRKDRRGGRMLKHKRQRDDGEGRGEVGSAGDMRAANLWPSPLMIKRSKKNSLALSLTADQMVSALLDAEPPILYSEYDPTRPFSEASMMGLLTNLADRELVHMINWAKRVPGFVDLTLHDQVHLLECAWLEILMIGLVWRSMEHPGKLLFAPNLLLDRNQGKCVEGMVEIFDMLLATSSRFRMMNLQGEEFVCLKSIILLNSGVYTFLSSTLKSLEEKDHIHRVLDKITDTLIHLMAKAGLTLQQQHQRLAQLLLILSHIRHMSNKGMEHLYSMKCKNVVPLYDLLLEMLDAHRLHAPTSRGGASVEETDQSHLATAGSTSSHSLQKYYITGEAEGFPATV
Format: cell-based
Outline: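 Inhibition of estradiol-driven luciferase expression was measured with compounds co-applied alongside oestrogen. Reporter system: MCF7-derived MVLN cells expressing endogenous functional ER and an ER-responsive luciferase construct.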

Row | Structure (SMILES) | pIC50
1 | O=S(=O)(CCCN(CCCCCCC1=C(c2ccc(F)cc2)CCCc2c1ccc(O)c2F)CC(F)F)CCCC(F)(F)C(F)(F)F [Example 64, 9-{6-[(2,2-Difluoroethyl){3-[(4,4,5,5,5-pentafluoropentyl)sulphonyl]propyl}amino]hexyl}-4-fluoro-8-(4-fluorophenyl)-6,7-dihydro-5H-benzo[7]annulen-3-ol] | 7.07
2 | O=S(=O)(CCCN(CCCCCCC1=C(c2ccc(F)cc2)CCCc2c1ccc(O)c2F)Cc1ccc(F)cc1)CCCC(F)(F)C(F)(F)F [Example 65, 4-Fluoro-9-{6-[(4-fluorobenzyl){3-[(4,4,5,5,5-pentafluoropentyl)sulphonyl]propyl}amino]hexyl}-8-(4-fluorophenyl)-6,7-dihydro-5H-benzo[7]annulen-3-ol] | 6.94
3 | CN(CCCCCCC1=C(c2cc(F)cc(F)c2)CCCc2cc(O)ccc21)CCCCCS(=O)(=O)CCC(F)(F)F [Example 68, 8-(3,5-Difluorophenyl)-9-[6-(methyl{5-[(3,3,3-trifluoropropyl)sulphonyl]pentyl}amino)hexyl]-6,7-dihydro-5H-benzo[7]annulen-3-ol] | 6.97
4 | CN(CCCCCCC1=C(c2ccc(F)c(F)c2)CCCc2cc(O)ccc21)CCCCCS(=O)(=O)CCC(F)(F)F [Example 71, 8-(3,4-Difluorophenyl)-9-[6-(methyl{5-[(3,3,3-trifluoropropyl)sulphonyl]pentyl}amino)hexyl]-6,7-dihydro-5H-benzo[7]annulen-3-ol] | 7.25
5 | CN(CCCCCCC1=C(c2ccc(F)cc2)CCCc2cc(O)ccc21)CCCSCCCC(F)(F)C(F)(F)F [Example 78, 8-(4-Fluorophenyl)-9-[6-(methyl{3-[(4,4,5,5,5-pentafluoropentyl)sulphanyl]propyl}amino)hexyl]-6,7-dihydro-5H-benzo[7]annulen-3-ol] | 7.51
6 | O=C(CN(CCCCCCC1=C(c2ccc(F)cc2)CCCc2cc(O)ccc21)CCCCS(=O)(=O)CCCC(F)(F)F)OCc1ccccc1 [Example 81, Benzyl-N-{6-[8-(4-fluorophenyl)-3-hydroxy-6,7-dihydro-5H-benzo[7]annulen-9-yl]hexyl}-N-{4-[(4,4,4-trifluorobutyl)sulphonyl]butyl}glycinate] | 7.40
7 | O=S(=O)(CCCN(CCCCCCC1=C(c2ccc(F)cc2)CCCc2c1ccc(O)c2F)CC(F)(F)F)CCCC(F)(F)C(F)(F)F [Example 84, 4-Fluoro-8-(4-fluorophenyl)-9-{6-[{3-[(4,4,5,5,5-pentafluoropentyl)sulphonyl]propyl}(2,2,2-trifluoroethyl)amino]hexyl}-6,7-dihydro-5H-benzo[7]annulen-3-ol] | 6.60
8 | O=S(=O)(CCCN(CCF)CCCCCCC1=C(c2ccc(F)cc2)CCCc2c1ccc(O)c2F)CCCC(F)(F)C(F)(F)F [Example 85, 4-Fluoro-9-{6-[(2-fluoroethyl){3-[(4,4,5,5,5-pentafluoropentyl)sulphonyl]propyl}amino]hexyl}-8-(4-fluorophenyl)-6,7-dihydro-5H-benzo[7]annulen-3-ol] | 7.29
9 | CC(=O)N(CCCCCCC1=C(c2ccc(F)cc2)CCCc2cc(O)ccc21)CCCCS(=O)(=O)CCCC(F)(F)F [Example 89, N-{6-[8-(4-Fluorophenyl)-3-hydroxy-6,7-dihydro-5H-benzo[7]annulen-9-yl]hexyl}-N-{4-[(4,4,4-trifluorobutyl)sulphonyl]butyl}acetamide] | 7.27
10 | CS(=O)(=O)N(CCCCCCC1=C(c2ccc(F)cc2)CCCc2cc(O)ccc21)CCCCS(=O)(=O)CCCC(F)(F)F [Example 91, N-{6-[8-(4-Fluorophenyl)-3-hydroxy-6,7-dihydro-5H-benzo[7]annulen-9-yl]hexyl}-N-{4-[(4,4,4-trifluorobutyl)sulphonyl]butyl}methanesulphonamide] | 7.17

Now those with a higher pIC50, led by results:

Row | pIC50 | Structure (SMILES)
11 | 7.55 | O=S(=O)(CCCN(CCF)CCCCCCC1=C(c2ccc(F)cc2)CCCc2cc(O)ccc21)CCCC(F)(F)C(F)(F)F [Example 74, 9-{6-[(2-Fluoroethyl){3-[(4,4,5,5,5-pentafluoropentyl)sulphonyl]propyl}amino]hexyl}-8-(4-fluorophenyl)-6,7-dihydro-5H-benzo[7]annulen-3-ol]
12 | 7.60 | CN(CCCCCCC1=C(c2ccc(F)cc2)CCCc2c1ccc(O)c2F)CCCSCCCC(F)(F)C(F)(F)F [Example 86, 4-Fluoro-8-(4-fluorophenyl)-9-[6-(methyl{3-[(4,4,5,5,5-pentafluoropentyl)sulphanyl]propyl}amino)hexyl]-6,7-dihydro-5H-benzo[7]annulen-3-ol]
13 | 7.62 | COC(=O)CCCN(CCCCCCC1=C(c2ccc(F)cc2)CCCc2cc(O)ccc21)CCCCS(=O)(=O)CCCC(F)(F)F [Example 88, Methyl-4-({6-[8-(4-fluorophenyl)-3-hydroxy-6,7-dihydro-5H-benzo[7]annulen-9-yl]hexyl}{4-[(4,4,4-trifluorobutyl)sulphonyl]butyl}amino)butanoate]
14 | 7.70 | O=S(=O)(CCCCNCCCCCCC1=C(c2cc(F)cc(F)c2)CCCc2cc(O)ccc21)CCCC(F)(F)F [Example 67, 8-(3,5-Difluorophenyl)-9-[6-({4-[(4,4,4-trifluorobutyl)sulphonyl]butyl}amino)hexyl]-6,7-dihydro-5H-benzo[7]annulen-3-ol]
15 | 7.72 | CN(CCCCCCC1=C(c2cc(F)cc(F)c2)CCCc2cc(O)ccc21)CCCCS(=O)(=O)CCC(F)(F)C(F)(F)F [Example 69, 8-(3,5-Difluorophenyl)-9-[6-(methyl{4-[(3,3,4,4,4-pentafluorobutyl)sulphonyl]butyl}amino)hexyl]-6,7-dihydro-5H-benzo[7]annulen-3-ol]
16 | 7.74 | CN(CCCCCCC1=C(c2cc(F)cc(F)c2)CCCc2cc(O)ccc21)CCCS(=O)(=O)CCCCC(F)(F)F [Example 70, 8-(3,5-Difluorophenyl)-9-[6-(methyl{3-[(5,5,5-trifluoropentyl)sulphonyl]propyl}amino)hexyl]-6,7-dihydro-5H-benzo[7]annulen-3-ol]
17 | 7.74 | CN(CCCCCCC1=C(c2ccc(F)c(F)c2)CCCc2cc(O)ccc21)CCCS(=O)(=O)CCCCC(F)(F)F [Example 73, 8-(3,4-Difluorophenyl)-9-[6-(methyl{3-[(5,5,5-trifluoropentyl)sulphonyl]propyl}amino)hexyl]-6,7-dihydro-5H-benzo[7]annulen-3-ol]
18 | 7.77 | CN(CCCCCCC1=C(c2ccc(F)cc2)CCCc2cc(O)ccc21)CCCS(=O)(=O)CCCCC(F)(F)C(F)(F)F [Example 79, 8-(4-Fluorophenyl)-9-[6-(methyl{3-[(5,5,6,6,6-pentafluorohexyl)sulphonyl]propyl}amino)hexyl]-6,7-dihydro-5H-benzo[7]annulen-3-ol]
19 | 7.85 | N#CCN(CCCCCCC1=C(c2ccc(F)cc2)CCCc2cc(O)ccc21)CCCCS(=O)(=O)CCCC(F)(F)F [Example 90, ({6-[8-(4-Fluorophenyl)-3-hydroxy-6,7-dihydro-5H-benzo[7]annulen-9-yl]hexyl}{4-[(4,4,4-trifluorobutyl)sulphonyl]butyl}amino)acetonitrile]
20 | 7.89 | COC(=O)CN(CCCCCCC1=C(c2ccc(F)cc2)CCCc2cc(O)ccc21)CCCCS(=O)(=O)CCCC(F)(F)F [Example 82, Methyl-N-{6-[8-(4-fluorophenyl)-3-hydroxy-6,7-dihydro-5H-benzo[7]annulen-9-yl]hexyl}-N-{4-[(4,4,4-trifluorobutyl)sulphonyl]butyl}glycinate]
21 | 7.89 | COC(=O)CCN(CCCCCCC1=C(c2ccc(F)cc2)CCCc2cc(O)ccc21)CCCCS(=O)(=O)CCCC(F)(F)F [Example 83, Methyl-N-{6-[8-(4-fluorophenyl)-3-hydroxy-6,7-dihydro-5H-benzo[7]annulen-9-yl]hexyl}-N-{4-[(4,4,4-trifluorobutyl)sulphonyl]butyl}-beta-alaninate]
22 | 7.96 | CN(CCCCCCC1=C(c2ccc(F)cc2)CCCc2cc(O)ccc21)CCCCS(=O)(=O)CCC(F)(F)C(F)(F)F [Example 75, 8-(4-Fluorophenyl)-9-[6-(methyl{4-[(3,3,4,4,4-pentafluorobutyl)sulphonyl]butyl}amino)hexyl]-6,7-dihydro-5H-benzo[7]annulen-3-ol]
23 | 8.00 | O=S(=O)(CCCCNCCCCCCC1=C(c2ccc(F)cc2)CCCc2cc(O)ccc21)CCCC(F)(F)F [Example 77, 8-(4-Fluorophenyl)-9-[6-({4-[(4,4,4-trifluorobutyl)sulphonyl]butyl}amino)hexyl]-6,7-dihydro-5H-benzo[7]annulen-3-ol]
24 | 8.00 | CN(CCCCCCC1=C(c2ccc(F)cc2)CCCc2c1ccc(O)c2F)CCCS(=O)(=O)CCCCC(F)(F)F [Example 87, 4-Fluoro-8-(4-fluorophenyl)-9-[6-(methyl{3-[(5,5,5-trifluoropentyl)sulphonyl]propyl}amino)hexyl]-6,7-dihydro-5H-benzo[7]annulen-3-ol]
25 | 8.30 | O=S(=O)(CCCCN(CCO)CCCCCCC1=C(c2ccc(F)cc2)CCCc2cc(O)ccc21)CCCC(F)(F)F [Example 92, 8-(4-Fluorophenyl)-9-{6-[(2-hydroxyethyl){4-[(4,4,4-trifluorobutyl)sulphonyl]butyl}amino]hexyl}-6,7-dihydro-5H-benzo[7]annulen-3-ol]
